Data taken from patent publication US12459951B2, “Compounds that interact with RAS superfamily proteins for treatment of cancers, inflammatory diseases, rasopathies, and fibrotic disease” (SHY Therapeutics, LLC, priority 2022, dated 2025).

What was measured:
TNF-alpha = TNF-alpha Quantification Assay (ELISA), LPS-stimulated RAW 264.7; type: cell-based; conditions: Mus musculus, RAW264.7; at 10 μM; read-out: TNFα: % inh.
KRas G12D mutant = experiment: Ras GTP Binding Domain Inhibition Assay (Ras Superfamily Assay); conditions: for KRas G12D mutant + SOS: % inh.: with SOS; for KRas G12D mutant: % inh.: without SOS
Procedure, shortened: (§1)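 His-tagged GTPases immobilised on nickel-coated plates, pre-incubated with compound (20 μM single point, or serial dilution for IC50) 3 h at room temperature, with or without 10-30 μg/mL Sos (residues 556-1049) in the final hour. Bound Cy3- or Cy5-GTP (100 nM, 45 min) measured by fluorescence after washing.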

Rac-1 = target: T1, Rac-1 (Homo sapiens, UniProt P63000); experiment: as above; conditions: read-out: Rac-1: % inh.
T1 construct: made in house
Procedure, shortened: as §1

KRas wild type = experiment: as above; conditions: for KRas wild type + SOS: % inh.: with SOS; for KRas wild type: % inh.: without SOS
Procedure, shortened: as §1

Akt phosphorylation = experiment: Akt Phosphorylation Assay (western blot), Panc-1; type: cell-based, human; conditions: at 10 μM, * = activation
Procedure, shortened: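 Phospho-Akt (Ser473) was measured by western blot in lysates of KRas G12D Panc-1 cells exposed to test compound for 6 h at 37 °C, either at 10 μM final with 0.3% DMSO or as serial dilutions for IC50. One format used overnight 0.5% FBS starvation followed by a 15 min pulse of 1.5 ng/ml EGF. The other used cells in 10% FBS with no stimulation.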

IL6 = experiment: IL-6 Quantification Assay (ELISA), LPS-stimulated RAW 264.7; type: cell-based; parameters: inhibition: dose or concentration left out as unconfirmed; conditions: Mus musculus, RAW264.7; read-out: IL-6: % inh.

| SMILES | inhibition at 10 µM (TNF-alpha) [%] | KRas G12D mutant + SOS: % inh. (KRas G12D mutant; at 20 μM) | KRas G12D mutant: % inh. (KRas G12D mutant; at 20 μM) | inhibition at 20 µM (Rac-1) [%] | KRas wild type + SOS: % inh. (KRas wild type; at 20 μM) | KRas wild type: % inh. (KRas wild type; at 20 μM) | % inh of Akt phosphorylation in Panc-1 (Akt phosphorylation) | inhibition (IL6) [%] | KRas G12D mutant + SOS: % inh. (KRas G12D mutant; 20 μM compound) | KRas G12D mutant: % inh. (KRas G12D mutant; 20 μM compound) | KRas wild type + SOS: % inh. (KRas wild type; 20 μM compound) | KRas wild type: % inh. (KRas wild type; 20 μM compound) |
| --- | --- | --- | --- | --- | --- | --- | --- | --- | --- | --- | --- | --- |
| Cc1c(-c2ccn(C)n2)cn2nc(-c3nccn3C)nc(Nc3ccc(OCC(F)(F)F)cn3)c12 [Compound 230, 5-Methyl-2-(1-methyl-1H-imidazol-2-yl)-6-(1-methyl-1H-pyrazol-3-yl)-N-(5-(2,2,2-trifluoroethoxy)pyridin-2-yl)pyrrolo[2,1-f][1,2,4]triazin-4-amine] | 1 to 24 | D (D = 76-100% inhibition) | D (D = 76-100% inhibition) | 76 to 100 | D (D = 76-100% inhibition) | D (D = 76-100% inhibition) | D* (85-100% activation) | 50 to 74 |  |  |  |  |
| Cc1c(-c2ccn(C)n2)cn2nc(-c3nccn3C)nc(Nc3ccc(C(F)F)cn3)c12 [Compound 234, N-(5-(Difluoromethyl)pyridin-2-yl)-5-methyl-2-(1-methyl-1H-imidazol-2-yl)-6-(1-methyl-1H-pyrazol-3-yl)pyrrolo[2,1-f][1,2,4]triazin-4-amine] | 1 to 24 | D (D = 76-100% inhibition) | D (D = 76-100% inhibition) | 76 to 100 | D (D = 76-100% inhibition) | C (C = 50-75% inhibition) | D* (85-100% activation) | 1 to 24 |  |  |  |  |
| COc1ccnc(Nc2nc(-c3nccn3C)nn3cc(-c4ccn(C)n4)c(C(=O)NC4CC4)c23)c1 [Compound 175, N-Cyclopropyl-4-((4-methoxypyridin-2-yl)amino)-2-(1-methyl-1H-imidazol-2-yl)-6-(1-methyl-1H-pyrazol-3-yl)pyrrolo[2,1-f][1,2,4]triazine-5-carboxamide] | 0 |  |  | 26 to 49 |  |  | D* (85-100% activation) | 75 to 100 | D (D = 76-100% inhibition) | C (C = 50-75% inhibition) | D (D = 76-100% inhibition) | D (D = 76-100% inhibition) |
| COCCCNC(=O)c1c(-c2ccn(C)n2)cn2nc(-c3nccn3C)nc(N[C@H]3CC[C@H](OC)C3)c12 (racemic) [Compound 184, rac 4-(((1S,3S)-3-methoxycyclo-pentyl)amino)-N-(3-methoxypropyl)-2-(1-methyl-1H-imidazol-2-yl)-6-(1-methyl-1H-pyrazol-3-yl)pyrrolo[2,1-f][1,2,4]triazine-5-carboxamide] | 25 to 49 |  |  | 1 to 25 |  |  | A* (1-25% activation) | 25 to 49 | 0 (0 = 0% inhibition) | B (B = 26-49% inhibition) | A (A = 1-25% inhibition) | A (A = 1-25% inhibition) |
| Cc1c(-c2ccn(C)n2)cn2nc(-c3nccn3C)nc(Nc3cc(OCCNC(=O)CCCC[C@H]4SC[C@H]5NC(=O)N[C@H]54)ccn3)c12 [Compound 186, N-(2-((2-((5-Methyl-2-(1-methyl-1H-imidazol-2-yl)-6-(1-methyl-1H-pyrazol-3-yl)pyrrolo[2,1-f][1,2,4]triazin-4-yl)amino)pyridin-4-yl)oxy)ethyl)-5-((3aR,4R,6aS)-2-oxohexahydro-1H-thieno[3,4-d]imidazol-4-yl)pentanamide] | 1 to 24 |  |  | 76 to 100 |  |  | A* (1-25% activation) | 1 to 24 | D (D = 76-100% inhibition) | D (D = 76-100% inhibition) | D (D = 76-100% inhibition) | D (D = 76-100% inhibition) |
| CO[C@@H]1C[C@H]1Nc1nc(-c2nccn2C)nn2cc(-c3cccnc3)c(-c3ccccc3)c12 (racemic) [Compound 190, N-((1R,2R)-2-Methoxycyclopropyl)-2-(1-methyl-1H-imidazol-2-yl)-5-phenyl-6-(pyridin-3-yl)pyrrolo[2,1-f][1,2,4]triazin-4-amine] | 1 to 24 | B (B = 26-49% inhibition) | B (B = 26-49% inhibition) | 26 to 49 | B (B = 26-49% inhibition) | A (A = 1-25% inhibition) | D* (85-100% activation) | 50 to 74 |  |  |  |  |
| COCCNc1nc(-c2nccn2C)nn2cc(-c3cccnc3)c(-c3ccccc3)c12 [Compound 195, N-(2-Methoxyethyl)-2-(1-methyl-1H-imidazol-2-yl)-5-phenyl-6-(pyridin-3-yl)pyrrolo[2,1-f][1,2,4]triazin-4-amine] | 0 | A (A = 1-25% inhibition) | A (A = 1-25% inhibition) | 1 to 25 | 0 (0 = 0% inhibition) | A (A = 1-25% inhibition) | D* (85-100% activation) | 50 to 74 |  |  |  |  |
| CO[C@H]1CC[C@H](Nc2nc(-c3nccn3C)nn3cc(-c4ccncc4)c(-c4ccccc4)c23)C1 (racemic) [Compound 201, rac N-((1S,3S)-3-Methoxycyclopentyl)-2-(1-methyl-1H-imidazol-2-yl)-5-phenyl-6-(pyridin-4-yl)pyrrolo[2,1-f][1,2,4]triazin-4-amine] | 50 to 74 | B (B = 26-49% inhibition) | B (B = 26-49% inhibition) | 26 to 49 | B (B = 26-49% inhibition) | A (A = 1-25% inhibition) | B (26-49% inhibition) | 75 to 100 |  |  |  |  |
| COc1ccnc(Nc2nc(-c3nccn3C)nn3cc(-c4ccn(CCNC(=O)CCCC[C@H]5SC[C@H]6NC(=O)N[C@H]65)n4)c(C)c23)c1 [Compound 215, N-(2-(3-(4-((4-methoxypyridin-2-yl)amino)-5-methyl-2-(1-methyl-1H-imidazol-2-yl)pyrrolo[2,1-f][1,2,4]triazin-6-yl)-1H-pyrazol-1-yl)ethyl)-5-((3aR,4R,6aS)-2-oxohexahydro-1H-thieno[3,4-d]imidazol-4-yl)pentanamide] | 25 to 49 | D (D = 76-100% inhibition) | D (D = 76-100% inhibition) | 76 to 100 | D (D = 76-100% inhibition) | D (D = 76-100% inhibition) | B* (26-49% activation) | 1 to 24 |  |  |  |  |
| Cc1c(-c2ccn(C)n2)cn2nc(-c3nccn3C)nc(Nc3ccc(OC(F)F)cn3)c12 [Compound 231, N-(5-(Difluorometh-oxy)pyridin-2-yl)-5-methyl-2-(1-methyl-1H-imidazol-2-yl)-6-(1-methyl-1H-pyrazol-3-yl)pyrrolo[2,1-f][1,2,4]triazin-4-amine] | 0 | C (C = 50-75% inhibition) | C (C = 50-75% inhibition) | 76 to 100 | B (B = 26-49% inhibition) | B (B = 26-49% inhibition) | D* (85-100% activation) | 1 to 24 |  |  |  |  |
| Cc1c(-c2ccn(C)n2)cn2nc(-c3nccn3C)nc(N)c12 [Compound 211, 5-Methyl-2-(1-methyl-1H-imidazol-2-yl)-6-(1-methyl-1H-pyrazol-3-yl)pyrrolo[2,1-f][1,2,4]triazin-4-amine] | 0 | C (C = 50-75% inhibition) | C (C = 50-75% inhibition) | 50 to 75 | D (D = 76-100% inhibition) | C (C = 50-75% inhibition) | A (1-25% inhibition) | 50 to 74 |  |  |  |  |
